Holding throughout (format): cell-based
The test system of experiment [1] is Hela cells. Briefly: RLuc pDNA delivery, robotic library screening, HeLa.
Experiment [2] deals with HCT116 cells expressing EGFP. Briefly: Cas9-RNP delivery against EGFP (gene editing, plate reader), HCT116. As for the experimental part: To generate an EGFP expressing HeLa cell line, HeLa cells were transfected with EGFP pDNA (pEGFP-C1, Clontech) and stable transfectants were selected with 400 μg/mL of G-418 (Millipore). Green clones were selected by epifluorescence microscopy and tested for EGFP expression stability through several passages. […] All other EGFP-expressing cell lines were obtained in a similar way from parent non-EGFP-expressing cell lines.
Cells expressing EGFP were seeded in a 96 well plate the day before the experiment at a concentration of 50,000 cell/mL (100 μL/w) in DMEM+10% FBS+1% Gln-Abt. For robotic library screening, the delivery of Cas9-RNP against EGFP (RNP designed to knock-out the gene encoding for the enhanced green fluorescent protein (EGFP)) was performed. For RNP assembly, 9.2 μL of crRNA and 9.2 μL of tracrRNA were mixed in 211.6 μL of Nuclease-Free Duplex Buffer (IDT), incubated for 5 min at 95° C. and slowly cooled at rt (see I. Lostalé-Seijo, et al. Peptide/Cas9 nanostructures for ribonucleoprotein cell membrane transport and gene edition, Chem. Sci., 2017). Cas9 protein was dissolved in DMEM at a final concentration of 4 μM and equal volumes of the RNA complex and Cas9 were mixed and incubated for 5 min at rt. 75 μL of the corresponding amphiphile concentrations were added to 5 μL of RNP at 2 μM. The mixture was shaken for 30 min at room temperature before the addition to the cells. The cell medium was aspirated, and cells were washed twice with PBS. Cells were covered with 30 μL of DMEM and 20 μL of the RNP/amphiphile complexes were added to the cells (final peptide concentrations=2.5, 5 and 10 μM; final Cas9-RNP concentration=50 nM) and incubated for 4 h. After the incubation, the medium was replaced by 100 μL of fresh DMEM supplemented with 10% FBS. The total EGFP fluorescence was quantified after 72 h in a plate reader (FIG. 2, Table 1 (right) and Table 6). All experiments were done in triplicate. […]
Tables 26-31 show the mean (triplicates) percentage of gene editing, accounted by GFP fluorescence intensity decrease (% of reduction), measured after the transfection of Cas9-RNP by different amphiphiles at different concentrations in a variety of cell lines. Background values, accounted by untreated control cells, were subtracted for processing.

Experiment [3] deals with ARPE19 cells. Description: EGFP mRNA delivery, robotic library screening, ARPE19. The procedure:
Cells were seeded in a 96 well plate the day before the experiment at a concentration of 50,000 cell/mL (100 μL/w) in DMEM+10% FBS+1% Gln-Abt. For robotic library screening, the delivery of EGFP-mRNA (from TriLink, fully substituted with 5-methoxyuridine, capped and polyadenylated; TriLink, CleanCap® EGFP mRNA (5moU), ref. L-7201) in six different cell lines was performed. Amphiphilic molecule stock solutions were prepared in DMSO as described above and diluted in DMEM to afford a range of concentrations. The solutions of EGFP-mRNA/amphiphilic molecule complexes were freshly prepared prior to the transfection experiments. 35 μL of the corresponding amphiphile were added to 10 μL of a solution of EGFP-mRNA at 10 ng/μL in DMEM. The mixture was shaken for 30 min at room temperature before the addition to the cells. The cell medium was aspirated, and cells were washed with PBS twice. Cells were covered with 39 μL of DMEM and 11 μL of the complex's solution were added to the cells and incubated for 4 h (final concentration of peptide=2.5, 5 and 10 μM; final concentration of EGFP-mRNA=25 ng/well). After the incubation, the medium was replaced by 100 μL of fresh DMEM supplemented with 10% FBS. The total EGFP fluorescence was quantified after 72 h in a well plate reader. Amphiphile transfection efficiency was compared and normalized to Lipofectamine® MessengerMax efficiency (value of 1 in Tables 1-5 and 7; double underlined numbers). All experiments were done in triplicate.
Tables 1-7: RLuc (pDNA) or EGFP (mRNA) expression levels were normalized to Lipofectamine reagents (value=1) and expressed as fold-times signal increase. In the case of siRNA, the siRNA treated cells fluorescence was compared with siMOCK control fluorescence, while Cas9-RNP mediated knockout was measured against the fluorescence of untreated cells. In both siRNA and Cas9-RNP, values are expressed as % fluorescence reduction. Amphiphile concentration was 5 μM in all cases. All experiments were performed in triplicate.
Tables 14-19 show the mean (triplicates) fluorescence intensity measured after the transfection of EGFP mRNA by different amphiphiles at different concentrations in a variety of cell lines. Background fluorescence values, accounted by untreated control cells, were subtracted for processing.

This is an account of results in patent publication US20250304623A1, “PEPTIDES FOR INTRACELLULAR DELIVERY” (UNIVERSIDADE DE SANTIAGO DE COMPOSTELA, priority 2022, published 2025).

Starred links: 1 amine or outer side, 2 acyl side, 3 side chain; linkers in the order of their positions; H or OH if unused. Residues, ends and D or L forms follow the SMILES beside them. Groups on a side chain read outwards from the residue. *: point of attachment. Glutaryl = O=C(CCCC(=O)[*:2])[*:1]; NHNH2 = NN*

Turning to `CC(=O)N[C@@H](CCCNC(=N)N)C(=O)N[C@@H](CCCCNC(=O)CCCC(=O)NN)C(=O)N[C@@H](Cc1c[nH]cn1)C(=O)N[C@@H](CCCNC(=N)N)C(=O)N[C@@H](CCCCNC(=O)CCCC(=O)NN)C(=O)N[C@@H](CCCCNC(=O)CCCC(=O)NN)C(=O)N[C@@H](Cc1c[nH]cn1)C(N)=O` [7.3(L-H), Ac-RK*HRK*K*H-NH2] (Ac-RK([Glutaryl-NHNH2])HRK([Glutaryl-NHNH2])K([Glutaryl-NHNH2])H-NH2), the “mean luminescent intensity (RLuc pDNA)” value is reported as 107063 RLU in experiment [1] (HeLa, Petroselinyl, 10 μM); 122581 RLU in experiment [1] (Hela, Myristoleyl, 5 μM); 115599 RLU in experiment [1] (Hela, Myristoleyl, 10 μM); 25022 RLU in experiment [1] (Hela, Myristoleyl, 15 μM); 226412 RLU in experiment [1] (Hela, Palmitoleyl, 5 μM); 180751 RLU in experiment [1] (Hela, Palmitoleyl, 10 μM). Besides, the “mean luminescent intensity (RLuc pDNA)” value amounted to 31589 RLU in experiment [1] (Hela, Palmitoleyl, 15 μM); 282134 RLU in experiment [1] (Hela, Petroselinyl, 5 μM); 13233 RLU in experiment [1] (Hela, Petroselinyl, 15 μM). In addition, the “percentage of gene editing, GFP fluorescence intensity decrease (% of reduction)” value is listed as 3% in experiment [2] (Dodecanal, 15 μM); 26% in experiment [2] (Myristoleyl, 15 μM); −5% in experiment [2] (Oleyl, 5 μM); 5% in experiment [2] (Oleyl, 10 μM); 28% in experiment [2] (Palmitoleyl, 5 μM); 22% in experiment [2] (Palmitoleyl, 10 μM). The “mean fluorescence intensity (EGFP mRNA)” value in experiment [3] (Myristoleyl, 2.5 μM) was 22958; in experiment [3] (Myristoleyl, 5 μM), 6178; in experiment [3] (Myristoleyl, 10 μM), 1216; in experiment [3] (Oleyl, 5 μM), 9014; in experiment [3] (Oleyl, 10 μM) it was 4676; in experiment [3] (Palmitoleyl, 2.5 μM) it was 35030. Besides, the “mean fluorescence intensity (EGFP mRNA)” value turned out to be 28077 in experiment [3] (Palmitoleyl, 5 μM); 4574 in experiment [3] (Palmitoleyl, 10 μM); 6471 in experiment [3] (Petroselinyl, 2.5 μM); 38057 in experiment [3] (Petroselinyl, 5 μM); 29449 in experiment [3] (Petroselinyl, 10 μM).
On to “Ac-RRHK*RLK*RRLK*RL-NH2 (Ac-RRHK(NHNH2)RLK(NHNH2)RRLK(NHNH2)RL-NH2; not fully specified; printed as Ac-RRHK*RLK*RRLK*RL-NH2; also: K*4,K*7,K*11: native or modified lysine (ε-amide to a linker)) [13(Leu-His)]”, for which the “mean luminescent intensity (RLuc pDNA)” value in experiment [1] (HeLa, Petroselinyl, 10 μM) was 2037 RLU; in experiment [1] (Hela, Myristoleyl, 5 μM), 7216 RLU; in experiment [1] (Hela, Myristoleyl, 10 μM), 985 RLU; in experiment [1] (Hela, Myristoleyl, 15 μM), −373 RLU; in experiment [1] (Hela, Palmitoleyl, 5 μM), 7854 RLU; in experiment [1] (Hela, Palmitoleyl, 10 μM), 3026 RLU. In addition, the “mean luminescent intensity (RLuc pDNA)” value in experiment [1] (Hela, Petroselinyl, 5 μM) is 5527 RLU. For the same molecule, the “percentage of gene editing, GFP fluorescence intensity decrease (% of reduction)” value is given as −28% in experiment [2] (Dodecanal, 5 μM); −5% in experiment [2] (Dodecanal, 10 μM); 22% in experiment [2] (Myristoleyl, 5 μM); −105% in experiment [2] (Myristoleyl, 10 μM); 7% in experiment [2] (Oleyl, 5 μM); 4% in experiment [2] (Palmitoleyl, 5 μM). Moreover, the “percentage of gene editing, GFP fluorescence intensity decrease (% of reduction)” value in experiment [2] (Palmitoleyl, 15 μM) turned out to be 0%; in experiment [2] (Petroselinyl, 5 μM), 18%. The “mean fluorescence intensity (EGFP mRNA)” value was determined as 318 in experiment [3] (Petroselinyl, 5 μM) and 419 in experiment [3] (Petroselinyl, 10 μM).
Consider “Ac-RK*LRRLLRK*-NH2 (Ac-RK(NHNH2)LRRLLRK(NHNH2)-NH2; not fully specified; printed as Ac-RK*LRRLLRK*-NH2; also: K*2,K*9: native or modified lysine (ε-amide to a linker)) [Peptide 9.2]”, for which the “mean luminescent intensity (RLuc pDNA)” value in experiment [1] (Hela, Dodecanal, 10 μM) is on record as 13156 RLU; in experiment [1] (Hela, Dodecanal, 15 μM), 11603 RLU; in experiment [1] (Hela, Myristoleyl, 5 μM) it was −600 RLU; in experiment [1] (Hela, Myristoleyl, 10 μM), −701 RLU; in experiment [1] (Hela, Myristoleyl, 15 μM), −707 RLU. Further, the “percentage of gene editing, GFP fluorescence intensity decrease (% of reduction)” value was −34% in experiment [2] (Dodecanal, 5 μM); −15% in experiment [2] (Dodecanal, 10 μM); −22% in experiment [2] (Dodecanal, 15 μM). Moreover, the “mean fluorescence intensity (EGFP mRNA)” value is listed as 1377 in experiment [3] (Myristoleyl, 2.5 μM) and 941 in experiment [3] (Myristoleyl, 5 μM).
“Ac-RK*LRRK*LRK*-NH2 (Ac-RK(NHNH2)LRRK(NHNH2)LRK(NHNH2)-NH2; not fully specified; printed as Ac-RK*LRRK*LRK*-NH2; also: K*2,K*6,K*9: native or modified lysine (ε-amide to a linker)) [Peptide 9.3]”: the “mean luminescent intensity (RLuc pDNA)” value in experiment [1] (HeLa, Petroselinyl, 10 μM) is given as 1228 RLU; in experiment [1] (Hela, Dodecanal, 10 μM) it was 70716 RLU; in experiment [1] (Hela, Dodecanal, 15 μM) it was 303962 RLU; in experiment [1] (Hela, Myristoleyl, 5 μM), 3600 RLU; in experiment [1] (Hela, Myristoleyl, 10 μM) it was 18554 RLU; in experiment [1] (Hela, Myristoleyl, 15 μM) it was 4014 RLU. The “mean luminescent intensity (RLuc pDNA)” value stood at 5404 RLU in experiment [1] (Hela, Oleyl, 10 μM); 1759 RLU in experiment [1] (Hela, Oleyl, 15 μM); 940 RLU in experiment [1] (Hela, Palmitoleyl, 10 μM); 22617 RLU in experiment [1] (Hela, Palmitoleyl, 15 μM); 1035 RLU in experiment [1] (Hela, Petroselinyl, 5 μM); 14602 RLU in experiment [1] (Hela, Petroselinyl, 15 μM). Moreover, the “percentage of gene editing, GFP fluorescence intensity decrease (% of reduction)” value in experiment [2] (Dodecanal, 5 μM) was 7%; in experiment [2] (Dodecanal, 10 μM), 1%; in experiment [2] (Dodecanal, 15 μM), −8%; in experiment [2] (Myristoleyl, 15 μM), −11%; in experiment [2] (Oleyl, 5 μM) it was 24%; in experiment [2] (Oleyl, 10 μM) it was 14%. Also, the “percentage of gene editing, GFP fluorescence intensity decrease (% of reduction)” value in experiment [2] (Palmitoleyl, 5 μM) was −21%; in experiment [2] (Palmitoleyl, 15 μM) it was −38%; in experiment [2] (Petroselinyl, 15 μM), 4%. In addition, the “mean fluorescence intensity (EGFP mRNA)” value in experiment [3] (Myristoleyl, 2.5 μM) worked out at 5042; in experiment [3] (Myristoleyl, 5 μM), 1233; in experiment [3] (Oleyl, 5 μM), 859; in experiment [3] (Oleyl, 10 μM) it was 919; in experiment [3] (Palmitoleyl, 5 μM) it was 948; in experiment [3] (Petroselinyl, 5 μM), 858.
